# Numbered stars: 1 amine (or outer) side, 2 acyl side, 3 side chain; on linkers, the order of the positions; unused ones are H or OH. Square brackets hold non-standard residues; d marks the D form. Peptide text beside a SMILES is read from it. * marks the point of attachment. X3 = COc1cc(CC(=O)[*:2])ccc1N[*:1]; X2 = O=C(Cc1ccc(N[*:1])cc1)[*:2]; NH(2-Me-phenyl) = Cc1ccccc1N*; CO = O=C([*:1])[*:2]; NHPh = c1ccc(N*)cc1; X1 = Oc1ccccc1N*
# Target: T1, VLA4 (Homo sapiens, UniProt P05556+P13612)
# T1 construct: endogenous in cells; host or cells: Ramos cells
# Assay: Inhibition of VLA4-dependent adhesion of Ramos cells to BSA-CS1
# Type: cell-based
# Conditions: not given
# From the text: For example, the cell adhesion inhibitory activity of these compounds may be measured by determining the concentration of inhibitor required to block the binding of VLA-4-expressing cells to fibronectin- or CS1-coated plates. In this assay microtiter wells are coated with either fibronectin (containing the CS1-sequence) or CS-1. If CS-1 is used, it must be conjugated to a carrier protein, such as bovine serum albumin, in order to bind to the wells. Once the wells are coated, varying concentrations of the test compound are then added together with appropriately labelled, VLA-4-expressing cells. Alternatively, the test compound may be added first and allowed to incubate with the coated wells prior to the addition of the cells. The cells are allowed to incubate in the wells for at least 30 minutes. Following incubation, the wells are emptied and washed. Inhibition of binding is measured by quantitating the fluorescence or radioactivity bound to the plate for each of the various concentrations of test compound, as well as for controls containing no test compound.
# VLA-4-expressing cells that may be utilized in this assay include Ramos cells, Jurkat cells, A375 melanoma cells, as well as human peripheral blood lymophocytes (PBLs). The cells used in this assay may be fluorescently or radioactively labelled.
# This assay was used to assess the potency of VLA4-directed inhibitory compounds of this invention. 1.
# We dissolved BSA-SMCC (Pierce Chemical, Rockford, Ill.; Catalog #77115) in H2O at a concentration of 10 mg/mL. [SEQ ID NO:4]: […](“Cys-Tyr-CS1 peptide”), which we synthesized by conventional solid phase chemistry and purified by HPLC, was dissolved in 10 mM HEPES pH 5, 50 mM NaCl and 0.1 mM EDTA also at a concentration of 10 mg/mL. We then mixed 500 μL of BSA-SMCC, 250 μL of Cys-Tyr-CS1 peptide and 75 μL of 1 mM HEPES pH 7.5 and allowed the conjugation reaction to proceed for 30 minutes. We stopped the reaction by adding 1 μL of beta-mercaptoethanol. Samples were analyzed for cross-linking by SDS-PAGE.
# We coated the wells of a Linbro titertek polystyrene 96-well flat bottom plate (Flow Laboratories, Maclean, Va.; catalog #76-231-05) with 100 μL of the above-described BSA-CS1 solution diluted to 1 μg/mL in 0.05 M NaHCO3 (15 mM NaHCO3, 35 mM Na2CO3) pH 9.2. Some wells were not coated with CS1 in order to assess non-specific cell binding (NSB). The plate was then incubated overnight at 4° C.
# Following this incubation, the contents of the wells were removed by inverting and blotting the plate. All of the wells were then blocked with 100 μL of 1% BSA in PBS, 0.02% NaN3, for a minimum of one hour at room temperature.
# Ramos cells are grown, maintained and labelled in RPMI 1640 culture medium containing 1% BSA. Just prior to running the assay, we added 2′, 7′-bis-(2-carboxyethyl)-5(and -6)carboxyfluorescein acetoxymethyl ester (“BCECF-AM”; Molecular Probes Inc., Eugene, Oregon; catalog #B-1150) to a final concentration of 2 μM to a culture of Ramos cells (4×10^6 cells/mL). We incubated the cells for 20 minutes at 37° C.
# Following labelling, the cells were washed twice in assay buffer (24 mM TRIS, 137 mM NaCl, 2.7 mM KCl, pH 7.4, containing 0.1 BSA and 2mM glucose) to remove any cations originating from the culture medium. The cells were then resuspended in assay buffer to 4×10^6 cells/mL and 2 mM MnCl2 was added to upregulate VLA4 on the surface of the cells.
# Immediately prior to running the assay, we removed the BSA blocking solution from the 96-well plates and washed the wells with 100 μL of assay buffer. We then added to each well 25 μL of test cell adhesion inhibitory compound at 2×the final concentration and 25 μL of the labelled Ramos cells. […] Each concentration of compound was tested in triplicate. The compound and cells are allowed to incubate for 30 minutes at room temperature.
# T1 sequence (P13612 34-1032): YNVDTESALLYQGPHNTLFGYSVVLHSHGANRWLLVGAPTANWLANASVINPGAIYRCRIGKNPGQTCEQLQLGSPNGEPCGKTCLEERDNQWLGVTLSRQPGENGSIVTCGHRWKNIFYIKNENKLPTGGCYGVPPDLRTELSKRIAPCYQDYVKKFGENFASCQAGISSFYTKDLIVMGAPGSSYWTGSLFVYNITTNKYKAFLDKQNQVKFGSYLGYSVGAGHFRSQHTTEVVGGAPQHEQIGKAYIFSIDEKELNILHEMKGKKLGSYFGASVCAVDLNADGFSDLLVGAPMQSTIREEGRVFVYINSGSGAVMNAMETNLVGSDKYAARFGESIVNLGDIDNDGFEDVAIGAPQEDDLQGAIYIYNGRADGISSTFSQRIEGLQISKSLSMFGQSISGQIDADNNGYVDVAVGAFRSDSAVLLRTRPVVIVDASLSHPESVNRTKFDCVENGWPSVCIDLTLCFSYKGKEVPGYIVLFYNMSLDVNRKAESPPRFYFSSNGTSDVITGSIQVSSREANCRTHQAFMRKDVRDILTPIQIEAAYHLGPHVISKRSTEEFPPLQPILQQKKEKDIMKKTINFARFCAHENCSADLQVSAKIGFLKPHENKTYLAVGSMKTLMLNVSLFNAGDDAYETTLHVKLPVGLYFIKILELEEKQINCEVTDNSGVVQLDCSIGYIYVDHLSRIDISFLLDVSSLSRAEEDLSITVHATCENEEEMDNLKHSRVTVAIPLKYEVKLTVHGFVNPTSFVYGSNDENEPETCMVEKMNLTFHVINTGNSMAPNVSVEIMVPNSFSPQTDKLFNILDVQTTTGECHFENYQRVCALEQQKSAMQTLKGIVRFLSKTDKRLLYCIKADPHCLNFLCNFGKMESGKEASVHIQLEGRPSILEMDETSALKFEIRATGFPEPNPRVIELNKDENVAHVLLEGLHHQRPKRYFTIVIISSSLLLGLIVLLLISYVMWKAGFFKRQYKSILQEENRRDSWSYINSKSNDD
# T1 sequence (P05556 21-798): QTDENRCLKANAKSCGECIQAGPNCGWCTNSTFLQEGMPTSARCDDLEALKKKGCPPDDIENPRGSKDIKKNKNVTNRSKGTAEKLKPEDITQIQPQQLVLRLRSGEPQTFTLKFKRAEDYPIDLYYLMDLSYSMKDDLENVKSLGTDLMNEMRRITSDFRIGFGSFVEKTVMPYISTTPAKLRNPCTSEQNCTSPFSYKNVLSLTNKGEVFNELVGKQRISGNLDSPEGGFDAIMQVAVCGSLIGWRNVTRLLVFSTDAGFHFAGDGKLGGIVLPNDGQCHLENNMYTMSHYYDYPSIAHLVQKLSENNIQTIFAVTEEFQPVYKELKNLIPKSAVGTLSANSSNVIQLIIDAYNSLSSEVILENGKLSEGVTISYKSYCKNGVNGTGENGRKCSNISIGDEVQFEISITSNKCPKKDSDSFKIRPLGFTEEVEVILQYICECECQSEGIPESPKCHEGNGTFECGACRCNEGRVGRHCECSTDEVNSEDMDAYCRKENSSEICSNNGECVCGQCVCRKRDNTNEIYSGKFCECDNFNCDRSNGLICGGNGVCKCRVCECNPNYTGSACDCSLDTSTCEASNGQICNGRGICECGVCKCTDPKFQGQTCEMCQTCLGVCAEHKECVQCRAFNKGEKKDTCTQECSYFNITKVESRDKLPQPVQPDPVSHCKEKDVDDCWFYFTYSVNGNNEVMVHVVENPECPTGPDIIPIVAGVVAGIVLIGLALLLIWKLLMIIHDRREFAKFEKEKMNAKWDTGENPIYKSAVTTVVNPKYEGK
row,Structure (SMILES),IC50
1,CC(C)CC(NC(=O)C1CCc2ccccc2N1)C(=O)NC(CC(=O)O)C(=O)NC(C(=O)N(C)c1ccccc1)C(C)C (centres unmarked) [Compound 120],> 10 µM

# Same assay, conditions: Ramos cells, BSA-CS1 coated wells, 2 mM MnCl2, 30 minutes at room temperature; read-out: IC50
row,Structure (SMILES),IC50
1,O=C(O)CNC(=O)[C@@H]1CCCN1C(=O)[C@H](CC(=O)O)NC(=O)Cc1ccccc1 [Compound 136] (HELM PEPTIDE1{[O=C(Cc1ccccc1)[*:2]].D.P.G}$$$$V2.0),> 10 µM
2,CC(C)C[C@H](NC(=O)Cc1ccccc1)C(=O)N[C@@H](CC(=O)O)C(=O)N1CCC[C@H]1C(=O)NC(C(=O)O)C(=O)O [Compound 138],> 10 µM
3,COC(=O)[C@@H](NC(=O)[C@H](CC(=O)O)NC(=O)[C@H](CC(C)C)N(C)C(=O)CCc1ccccc1)C(C)C [Compound 140] (HELM PEPTIDE1{[O=C(CCc1ccccc1)[*:2]].[meL].D.V.[CO[*:1]]}$$$$V2.0),> 10 µM
4,COC(=O)[C@@H](NC(=O)[C@H](CC(=O)O)NC(=O)[C@H](CC(C)C)N(C)C(=O)Cc1ccc(O)cc1)C(C)C [Compound 141],> 10 µM
5,COC(=O)[C@@H](NC(=O)[C@H](CC(=O)O)NC(=O)[C@H](CC(C)C)N(C)C(=O)c1ccc2ccccc2n1)C(C)C [Compound 142],> 10 µM
6,COC(=O)[C@@H](NC(=O)[C@H](CC(=O)O)NC(=O)[C@H](CC(C)C)N(C)C(=O)CCCc1ccccc1)C(C)C [Compound 143],> 10 µM
7,CC(C)[C@H](NC(=O)[C@H](CC(=O)O)NC(=O)OC(C)(C)C)C(=O)N1CCC[C@H]1C(=O)O [Compound 149] (HELM PEPTIDE1{[CC(C)(C)OC(=O)[*:2]].D.V.P}$$$$V2.0),> 10 µM
8,CC(C)[C@H](NC(=O)[C@H](CC(=O)O)NC(=O)CCCCc1ccccc1)C(=O)N1CCC[C@H]1C(=O)O [Compound 150],> 10 µM
9,C=CCC(CCc1ccccc1)C(=O)N[C@H](C(=O)N1CCC[C@H]1C(=O)O)C(C)C (some centres unmarked) [Compound 151],> 10 µM
10,CC(=O)N[C@@H](Cc1ccccc1)C(=O)N[C@@H](CC(C)C)C(=O)N[C@@H](CC(=O)O)C(=O)N[C@H](C(=O)O)C(C)C [Compound 152] (Ac-FLDV-OH),> 10 µM
11,COC(=O)[C@@H](NC(=O)[C@H](CC(=O)O)NC(=O)[C@H](CC(C)C)NC(=O)C1Cc2ccccc2CN1)C(C)C (some centres unmarked) [Compound 154] (HELM PEPTIDE1{[O=C(C1Cc2ccccc2CN1)[*:2]].L.D.V.[CO[*:1]]}$$$$V2.0),> 10 µM
12,CC(C)C[C@H](NC(=O)CCCc1ccccc1)C(=O)N[C@@H](CC(=O)O)C(=O)N[C@H](C(=O)O)C(C)C [Compound 155],> 10 µM
13,CC(C)C[C@H](NC(=O)c1ccc2ccccc2n1)C(=O)N[C@@H](CC(=O)O)C(=O)N[C@H](C(=O)OC(C)(C)C)C(C)C [Compound 158],> 10 µM
14,CC(C)C[C@H](NC(=O)c1ccc2ccccc2n1)C(=O)N[C@@H](CC(=O)OCc1ccccc1)C(=O)N[C@H](C(=O)O)C(C)C [Compound 159],> 10 µM
15,CC(C)C[C@H](NC(=O)c1ccc2ccccc2n1)C(=O)N[C@@H](CC(=O)O)C(=O)N[C@@H](CC(=O)O)C(=O)O [Compound 160],> 10 µM

# The next lines start with the values.
row,IC50,Structure (SMILES)
1,> 10 µM,CC(C)C[C@H](NC(=O)c1ccc2ccccc2n1)C(=O)N[C@@H](CC(=O)O)C(=O)N[C@H](C(=O)N(C)c1ccccc1)C(C)C [Compound 121]
2,> 10 µM,CC(C)C[C@H](NC(=O)C1CCc2ccccc2N1)C(=O)N[C@@H](CC(=O)O)C(=O)N[C@H](C(=O)Nc1ccc(F)cc1)C(C)C (some centres unmarked) [Compound 122]
3,> 10 µM,CC(C)C[C@H](NC(=O)c1ccc2ccccc2n1)C(=O)N[C@@H](CC(=O)O)C(=O)N[C@H](C(=O)Nc1ccc(F)cc1)C(C)C [Compound 123]
4,> 10 µM,CC(C)C[C@H](NC(=O)C1CCc2ccccc2N1)C(=O)N[C@@H](CC(=O)O)C(=O)N[C@H](C(=O)Nc1ccccc1)C(C)C (some centres unmarked) [Compound 124]
5,> 10 µM,CC(C)C[C@H](NC(=O)c1ccc2ccccc2n1)C(=O)N[C@@H](CC(=O)O)C(=O)N[C@H](C(=O)Nc1ccccc1)C(C)C [Compound 125]
6,> 10 µM,CNC(=O)[C@@H](NC(=O)[C@H](CC(=O)O)NC(=O)[C@H](CC(C)C)N(C)C(=O)c1ccccn1)C(C)C [Compound 126]
7,> 10 µM,CC(C)C[C@H](NC(=O)c1ccc2ccccc2n1)C(=O)N[C@@H](CC(=O)O)C(=O)N[C@H](C(=O)N1CCN(c2ccccc2)CC1)C(C)C [Compound 127]
8,> 10 µM,CNC(=O)[C@@H](NC(=O)[C@H](CC(=O)O)NC(=O)[C@H](CC(C)C)N(C)C(=O)c1ccc(OC)cc1)C(C)C [Compound 128]
9,> 10 µM,CNC(=O)[C@@H](NC(=O)[C@H](CC(=O)O)NC(=O)[C@H](Cc1ccc(O)cc1)NC(=O)Cc1ccccc1)C(C)C [Compound 129] (HELM PEPTIDE1{[O=C(Cc1ccccc1)[*:2]].Y.D.V.[CN[*:1]]}$$$$V2.0)
10,> 10 µM,CNC(=O)[C@@H](NC(=O)[C@H](CC(=O)O)NC(=O)[C@@H]1CCCN1C(=O)Cc1ccccc1)C(C)C [Compound 130] (HELM PEPTIDE1{[O=C(Cc1ccccc1)[*:2]].P.D.V.[CN[*:1]]}$$$$V2.0)
11,> 10 µM,CNC(=O)[C@@H](NC(=O)[C@H](CC(=O)O)NC(=O)[C@H](CCCNC(=N)N)NC(=O)Cc1ccccc1)C(C)C [Compound 131] (HELM PEPTIDE1{[O=C(Cc1ccccc1)[*:2]].R.D.V.[CN[*:1]]}$$$$V2.0)
12,> 10 µM,CNC(=O)[C@@H](NC(=O)[C@H](CC(=O)O)NC(=O)[C@H](CC(N)=O)NC(=O)Cc1ccccc1)C(C)C [Compound 132] (HELM PEPTIDE1{[O=C(Cc1ccccc1)[*:2]].N.D.V.[CN[*:1]]}$$$$V2.0)
13,> 10 µM,CNC(=O)[C@@H](NC(=O)[C@H](CC(=O)O)NC(=O)C1(NC(=O)OC(C)(C)C)CCc2ccccc2C1)C(C)C (some centres unmarked) [Compound 133]
14,> 10 µM,CNC(=O)[C@@H](NC(=O)[C@H](CC(=O)O)NC(=O)C1(NC(=O)Cc2ccccc2)CCc2ccccc2C1)C(C)C (some centres unmarked) [Compound 134]
15,> 10 µM,CC(C)(C)OC(=O)N[C@@H](CC(=O)O)C(=O)N1CCC[C@H]1C(=O)NCC(=O)O [Compound 135] (HELM PEPTIDE1{[CC(C)(C)OC(=O)[*:2]].D.P.G}$$$$V2.0)
16,< 0.05 µM,CC(C)C[C@H](NC(=O)Cc1ccc(NC(=O)Nc2ccccc2O)cc1)C(=O)N[C@@H](CC(=O)O)C(=O)N[C@H](C(=O)N1CCC[C@H]1C(=O)O)C(C)C [Compound 144] ({X1-CO}-[X2]LDVP-OH)
17,< 0.05 µM,CC(C)C[C@H](NC(=O)Cc1ccc(NC(=O)Nc2ccccc2)cc1)C(=O)N[C@@H](CC(=O)O)C(=O)N[C@H](C(=O)N1CCC[C@H]1C(=O)O)C(C)C [Compound 145] ({NHPh-CO}-[X2]LDVP-OH)
18,< 0.05 µM,CSCC[C@H](NC(=O)Cc1ccc(NC(=O)Nc2ccccc2O)cc1)C(=O)N[C@@H](CC(=O)O)C(=O)N[C@H](C(=O)N1CCC[C@H]1C(=O)O)C(C)C [Compound 146] ({X1-CO}-[X2]MDVP-OH)
19,< 0.05 µM,COc1cc(CC(=O)N[C@@H](CC(C)C)C(=O)N[C@@H](CC(=O)O)C(=O)N[C@H](C(=O)N2CCC[C@H]2C(N)=O)C(C)C)ccc1NC(=O)Nc1ccccc1 [Compound 147] ({NHPh-CO}-[X3]LDVP-NH2)
20,< 0.05 µM,Cc1ccccc1NC(=O)Nc1ccc(CC(=O)N[C@@H](CC(C)C)C(=O)N[C@@H](CC(=O)O)C(=O)N[C@H](C(=O)N2CCC[C@H]2C(N)=O)C(C)C)cc1 [Compound 148] ({NH(2-Me-phenyl)-CO}-[X2]LDVP-NH2)
21,0.05 to 10 µM,COC(=O)[C@@H](NC(=O)[C@H](CC(=O)O)NC(=O)[C@H](CC(C)C)NC(=O)c1cc2ccccc2cn1)C(C)C [Compound 156]
22,0.05 to 10 µM,CC(C)CNC(=O)[C@H](CC(=O)O)NC(=O)[C@H](CC(C)C)NC(=O)c1cc2ccccc2cn1 [Compound 157]
